Test results: US20070243548A1, “Calumenin-directed diagnostics and therapeutics for cancer and chemotherapeutic drug resistance” (priority 2006, published 2007)

How the values were obtained:
MCF-7 cells = assay: cells; type: cell-based, human
Procedure: For a typical siRNA transfection, […] of the annealed siRNA duplex was mixed with 1.4 ml of Opti-MEM reagent (Invitrogen). In another tube, […] of Oligofectamine reagent (Invitrogen, Carlsbad, Calif.) was mixed with […] of Opti-MEM. The two solutions were combined and mixed gently by inversion and incubated for 20 min. at RT. The resulting solution was added to the cultured cells drop by drop in a 10 cm dish (cells are approximately 40-50% confluent). The next day the transfected cells were trypsinized and seeded in 6 or 96-well plates and further incubated for the indicated amount of time (assay dependent) before further analysis.
Cell survival was determined using the MTT cytotoxicity assay (see, e.g., Tokuyama et al. (2005) Anticancer Res. 25(1A): 17-22). Small interfering RNA transfected cells were seeded in triplicate into 96-well plates at 5×10^3 cells/well 48 hrs post-transfection. The cells were incubated for an additional 16 to 24 hrs before they were exposed to increasing concentrations of cytotoxic drugs. Doxorubicin (adriamycin), cisplatin, taxol, vinblastine, vincristine, and mitoxantrone were all purchased from Sigma Corp. (St. Louis, Mo.). Stocks were made as follows: 6 mM for doxorubicin, 1.1 mM for vincristine and vinblastine; 1.1 mM for taxol, 50 mM for cisplatin both in DMSO; and 0.97 mM mitoxantrone in ethanol. Appropriate dilutions were made in the respective media for each cell line. Following addition of drugs, incubation was continued for an additional 72 hrs. […] of MTT dye (5 mg/ml) were added into each well and the plate was further incubated at 37° C. for 4 hrs. The dye was solubilized with 10% Triton X-100, 0.01 N HCl and further incubated at 37° C. in the dark for 30 min. Cell viability was determined by measure of absorption at 570 nm in a Wallac multiwell plate reader (PerkinElmer, Inc., Boston, Mass.). The averages of triplicate wells were plotted using the Prism software (GraphPad Software, Inc., San Diego, Calif.).

MCF-7/ADR xenografts = assay: Mammary adenocarcinoma MCF-7/ADR xenografts in nude mice; type: in vivo; settings: adenocarcinomas, vs mice treated with control siRNA
Procedure: In further studies, the efficacy of a calumenin-targeted therapeutic in treating an MDR mammary adenocarcinoma cells (MCF/AR) is assessed. Briefly, male […] nude mice 5 to 7 weeks old, weighing 18 g to 22 g, are used for the MCF-7/ADR xenografts. Mice receive a subcutaneous (s.c.) injection of the cells using 5×10^5 cells/inoculation under the shoulder. When the s.c. tumor is approximately 5.5 mm in size, mice are randomized into treatment groups of 4 including controls and groups receiving taxol or doxorubicin, alone (4 mg/kg), intraperitoneally (i.p.) every 2 days, calumenin siRNA alone (3 μg daily for 16 days), or both taxol and calumenin siRNA (3 μg daily for 16 days for each treatment). […] The animal's weight is measured every 4 days. Tumor growth starting on the first day of treatment is measured and the volume of the xenograft is monitored every 4 days. […] Tumor tissue is excised from the mice and its weight is measured. […]
In further studies, the efficacy of a calumenin-targeted therapeutic in treating a mammary adenocarcinoma cells (MCF-7) is assessed. […] The animal's weight is measured every 4 days. Tumor growth starting on the first day of treatment is measured and the volume of the xenograft is monitored every 4 days. […] Tumor tissue is excised from the mice and its weight is measured. […]

Substance: Calumenin siRNA: siRNA duplex targeting human calumenin mRNA; sense 5′-GAAGGACCGUGUACAUCAU-3′ (SEQ ID NO: 1), anti-sense 5′-AUGAUGUACACGGUCCUUC-3′ (SEQ ID NO: 2), 3′TT overhangs (3' TT overhangs on both strands, further chemistry not given here)
- decrease in cell viability of MCF-7 cells (MCF-7 cells): 48%
- total cell number in tumors (MCF-7/ADR xenografts): lower
- tumors by weight (MCF-7/ADR xenografts; 3 μg siRNA daily for 16 days): smaller
